Data as given in article PMC6278658, “Two New Altenusin/Thiazole Hybrids and a New Benzothiazole Derivative from the Marine Sponge-Derived Fungus Alternaria sp. SCSIOS02F49” (Molecules, 2018).

What was measured:
[1] = DPPH radical scavenging activity; details: for IC50: DPPH 0.1 mM in ethanol, 30 min at room temperature in the dark, absorbance at 517 nm, triplicates, read-out: DPPH Free Radical Scavenging Activity (IC50); for DPPH free-radical-scavenging activity compared with BHT: comparison with positive control BHT
Experimental: The DPPH (2,2-diphenyl-1-picrylhydrazyl) radical scavenging ability of the sample was conducted based on the method described by Kumagai et al. with minor modifications. The reaction mixture was with DPPH (0.1 mM, dissolved in ethanol) and various concentrations of sample in equal volumes, which was incubated at room temperature for 30 min in the dark. The absorbance of the mixture was measured at 517 nm using UV (UV-2600, UNICO Instrument Co. Ltd., Shanghai, China). The final concentrations of each compound in the wells were confined as 1000, 333, 111, 37.0, 12.3, 4.11, 1.37, and 0.46 μM. The ethanol and butylated hydroxytoluene (BHT), instead of samples, were used for a blank and positive control, respectively. Each assay was carried out in triplicates. IC50, the concentration of elimination of 50% DPPH radical scavenging activity, was measured by non-liner regression.

[2] = target: T1, Human recombinant COX-2 enzyme (Homo sapiens, UniProt P35354); assay: COX-2 inhibitory activity assay (Cayman COX Fluorescent Inhibitor Screening Assay Kit); format: biochemical; details: 15 min pre-incubation, arachidonic acid substrate, fluorescence 530/595 nm, triplicates
T1 construct: purchased Cayman #700100
T1 sequence (P35354 18-604): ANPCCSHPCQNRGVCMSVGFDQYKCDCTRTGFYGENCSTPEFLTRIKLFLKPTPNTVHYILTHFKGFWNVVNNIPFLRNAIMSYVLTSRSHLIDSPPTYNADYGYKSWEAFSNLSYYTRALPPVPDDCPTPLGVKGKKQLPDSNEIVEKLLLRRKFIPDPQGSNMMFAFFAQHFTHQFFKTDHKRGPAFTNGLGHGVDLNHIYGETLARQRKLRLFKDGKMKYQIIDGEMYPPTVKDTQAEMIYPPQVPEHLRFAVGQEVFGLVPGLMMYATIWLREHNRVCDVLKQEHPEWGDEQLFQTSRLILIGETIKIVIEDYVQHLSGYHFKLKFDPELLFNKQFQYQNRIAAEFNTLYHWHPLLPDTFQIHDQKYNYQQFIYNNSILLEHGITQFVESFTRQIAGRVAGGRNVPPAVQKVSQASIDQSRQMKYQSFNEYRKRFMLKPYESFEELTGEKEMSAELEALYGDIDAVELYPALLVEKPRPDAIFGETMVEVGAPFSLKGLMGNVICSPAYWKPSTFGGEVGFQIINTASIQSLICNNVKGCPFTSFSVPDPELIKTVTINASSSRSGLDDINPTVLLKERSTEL
Experimental: The COX-2 inhibitory activity assay of sample was conducted according to a previously reported method. […] Human recombinant COX-2 enzyme was pre-incubated with inhibitors for 15 min at normal temperature, followed by the addition of heme and fluorometric substrate and incubation for another 15 min at normal temperature. The reaction was started by the addition of arachidonic acid and allowed to proceed for 2 min. […] Each assay was carried out in triplicates. IC50, was measured by non-liner regression.

[3] = set-up: method as in PMID 22061662; details: previous study; cited from earlier work

COc1cc(O)cc(C2=C(C)C[C@H](O)C2=O)c1 [Compound 6, (S)-alternariphent A1]
IC50 [1]: > 1000 µM
IC50 [2]: > 30 µM

COc1cc(O)c(C(=O)O)c(-c2cc(O)c(O)cc2C)c1 [Compound 4, Altenusin]
IC50 [1]: 10.7 ± 0.09 µM
DPPH free-radical-scavenging activity compared with BHT [1]: higher DPPH free-radical-scavenging activities than BHT
IC50 [2]: > 30 µM
radical scavenging activity in comparison with vitamin C [3]: strong radical scavenging activity

COc1cc(O)c(C(=O)O)c(-c2cc(O)c3ncsc3c2C)c1 [Compound 2, altenusinoides B]
IC50 [1]: > 1000 µM
IC50 [2]: > 30 µM

Cc1cc(C(C)(C)C)c(O)c(C(C)(C)C)c1 [BHT, butylated hydroxytoluene, reference compound]
IC50 [1]: 170.3 ± 0.06 µM

COC(=O)Cc1cc(O)cc2scnc12 [Compound 3, methyl 2-(6-hydroxybenzothiazol-4-yl) acetate]
IC50 [1]: > 1000 µM
IC50 [2]: > 30 µM

COc1cc(O)c(C(=O)O)c(-c2c(C)cc(O)c3ncsc23)c1 [Compound 1, Altenusinoides A]
IC50 [1]: > 1000 µM
IC50 [2]: > 30 µM

COc1cc(O)cc(-c2cc(O)c(O)cc2C)c1 [Compound 5, 5′-methoxy-6-methyl-biphenyl-3,4,3′-triol]
IC50 [1]: 100.6 ± 0.025 µM
DPPH free-radical-scavenging activity compared with BHT [1]: higher DPPH free-radical-scavenging activities than BHT
IC50 [2]: 9.5 ± 0.08 µM
radical scavenging activity in comparison with vitamin C [3]: strong radical scavenging activity
